Experimental data published in patent US8846746B2, “Pyrazole compound and pharmaceutical use thereof” (Japan Tobacco Inc., priority 2011, dated 2014).

Target: human SGLT1 (Homo sapiens (Human), UniProt P13866)
Experiment: SGLT1 inhibitory activity: 14C-AMG uptake into CHO-K1 cell line stably expressing human SGLT1
Type: cell-based
Conditions: for IC50: 14C-AMG uptake; for human SGLT1 % Inhibition: at 0.1 uM; for inhibition at 0.3 µM: CHO-K1, at 0.3 uM
Outline: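 Human SGLT1 was stably expressed in CHO-K1 cells. Cells were first held 20 min in sodium-free buffer, then exposed to compound in Na(+)/BSA buffer with tracer and AMG (2 mM in the added solution).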

[1] = CHO-K1 cells stably expressing human SGLT1
[2] = CHO-K1 cells expressing human SGLT1

Chain of human SGLT1 (P13866 whole entry): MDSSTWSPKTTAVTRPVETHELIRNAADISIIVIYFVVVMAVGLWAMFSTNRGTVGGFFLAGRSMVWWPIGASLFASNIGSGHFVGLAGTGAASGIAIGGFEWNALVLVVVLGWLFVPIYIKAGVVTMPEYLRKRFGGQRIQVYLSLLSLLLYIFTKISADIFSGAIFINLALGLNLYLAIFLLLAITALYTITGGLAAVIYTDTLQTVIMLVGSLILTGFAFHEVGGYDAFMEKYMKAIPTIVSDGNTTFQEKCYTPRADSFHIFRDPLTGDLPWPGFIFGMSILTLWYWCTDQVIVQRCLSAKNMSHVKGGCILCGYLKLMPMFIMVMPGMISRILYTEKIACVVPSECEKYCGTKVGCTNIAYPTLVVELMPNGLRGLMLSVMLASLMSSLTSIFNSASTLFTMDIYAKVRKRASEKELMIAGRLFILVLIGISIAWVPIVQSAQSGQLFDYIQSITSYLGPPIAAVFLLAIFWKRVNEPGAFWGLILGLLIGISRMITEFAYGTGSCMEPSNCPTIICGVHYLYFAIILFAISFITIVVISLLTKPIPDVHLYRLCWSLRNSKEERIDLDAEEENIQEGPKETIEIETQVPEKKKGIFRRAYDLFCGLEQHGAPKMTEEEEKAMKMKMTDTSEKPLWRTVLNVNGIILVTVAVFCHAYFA

IC50 [1] [nM]	IC50 [2] [nM]	SMILES	also measured
–	34	CCc1cccc(-c2cc(NC(=O)[C@@H]3CNC(=O)C3)nn2-c2ccccc2)c1 [Example 44]	–
19.5	–	CC(C)(C)OCc1cccc(-c2cc(NC(=O)[C@@H]3CNC(=O)C3)nn2-c2ccccc2)c1 [Example 313]	–
–	2	CCCc1cccc(-c2cc(NC(=O)[C@@H]3CNC(=O)C3)nn2-c2cccc(C)c2)c1 [Example 77]	–
48	–	CC(C)(C)CS(=O)(=O)c1cccc(-c2cc(NC(=O)[C@@H]3CNC(=O)C3)nn2-c2ccccc2)c1 [Example 540]	–
–	2.4	CCCc1cccc(-c2cc(NC(=O)[C@@H]3CNC(=O)C3)nn2-c2ccccc2Cl)c1 [Example 101]	–
20	–	C[C@@H](OCc1cc(F)cc(-c2cc(NC(=O)[C@H]3CNC(=O)N3)nn2-c2ccc(F)cc2)c1)C(F)(F)F [Example 240, (R)-2-oxoimidazolidine-4-carboxylic acid{1-(4-fluorophenyl)-5-[3-fluoro-5-((R)-2,2,2-trifluoro-1-methylethoxymethyl)phenyl]-1H-pyrazol-3-yl}amide]	–
–	19	CCC(F)(F)c1cccc(-c2cc(NC(=O)[C@H]3CNC(=O)[C@@H]3C)nn2C2CCOCC2)c1 [Example 179]	–
13	–	C[C@@H](OCc1cccc(-c2cc(NC(=O)[C@@H]3CNC(=O)N3)nn2-c2ccccc2)c1)C(F)(F)F [Example 562]	–
–	140	CC1(C)CCCC(c2cc(NC(=O)[C@H]3CNC(=O)C3)nn2-c2ccccc2)C1 (single isomer, unassigned) [Example 89]	–
28	–	CC(C)CCOc1cccc(-c2cc(NC(=O)[C@@H]3CNC(=O)C3)nn2-c2ccccc2)c1 [Example 319]	–
–	0.9	CC(C)(C)c1cccc(-c2cc(NC(=O)[C@H]3CNC(=O)C3)nn2-c2ccccc2Cl)c1 [Example 132]	–
3.4	–	COCCOc1cc(-n2nc(NC(=O)[C@@H]3CNC(=O)C3)cc2-c2cccc(CO[C@H](C)C(F)(F)F)c2)ccc1F [Example 456]	–

The remaining lines, values behind:

SMILES	IC50 [1] [nM]	IC50 [2] [nM]	also measured
CCCc1cccc(-c2cc(NC(=O)[C@@H]3CNC(=O)C3)nn2-c2ccc(OCc3ccccc3)cc2)c1 [Example 370]	6.35	–	–
CCCc1cccc(-c2cc(NC(=O)[C@H]3CNC(=O)C3)nn2C2CCOCC2)c1 [Example 136]	–	28	–
CCCc1cccc(-c2cc(NC(=O)C3CNC(=O)C3)nn2C2CCCCC2)c1 (racemic) [Example 32]	–	12	–
C[C@@H](OCc1cccc(-c2cc(NC(=O)[C@H]3CNC(=O)N3)nn2-c2ccc(Cl)cc2)c1)C(F)(F)F [Example 590]	13	–	–
CC(C)c1cccc(-c2cc(NC(=O)[C@@H]3CNC(=O)C3)nn2-c2ccccc2)c1 [Example 55]	–	18	–
O=C1NC[C@H](C(=O)Nc2cc(-c3cccc(COCCC(F)(F)F)c3)n(-c3ccccc3)n2)O1 [Example 337]	32	–	–
CCCc1cccc(-c2cc(NC(=O)C3CC(=O)NC3C)nn2-c2ccccc2)c1 (single isomer, unassigned) [Example 20]	–	150	–
O=C1C[C@H](C(=O)Nc2cc(-c3cccc(S(=O)(=O)CCC(F)(F)F)c3)n(-c3ccccc3)n2)CN1 [Example 551]	–	–	inhibition at 0.1 µM (CHO-K1, at 0.1 uM): 42%
COCCOc1ccc(F)c(-n2nc(NC(=O)[C@@H]3CNC(=O)C3)cc2-c2cccc(OC(F)(F)F)c2)c1 [Example 518]	11	–	–
CCCc1cccc(-c2cc(NC(=O)C3CNC(=O)C(C)C3)nn2-c2ccccc2)c1 (racemic) [Example 293]	–	–	human SGLT1 % Inhibition: 27%
CC1C(=O)NC(O)C1C(=O)Nc1cc(-c2cccc(OC(F)(F)F)c2)n(-c2ccccc2)n1 (racemic) [Example 254]	–	–	inhibition at 0.3 µM: 49%
COc1cccc(-n2nc(NC(=O)[C@@H]3CNC(=O)C3)cc2-c2cccc(COCC(F)(F)F)c2)c1 [Example 446]	5.6	–	–
O=C1C[C@@H](C(=O)Nc2cc(-c3cccc(OC(F)(F)F)c3)n(CCC3CCOCC3)n2)CN1 [Example 201]	–	93	–
O=C1COC(C(=O)Nc2cc(-c3cccc(OC(F)(F)F)c3)n(-c3ccccc3)n2)CN1 (stereo not drawn) [Example 278]	–	–	human SGLT1 % Inhibition: 34%
CCCc1cccc(-c2cc(NC(=O)[C@@H]3CN(CC)C(=O)N3)nn2-c2ccccc2)c1 [Example 329]	–	–	inhibition at 0.3 µM: 35%
